The source of these data is ChEMBL document CHEMBL5620344, “Discovery of novel 5-(2-hydroxyphenyl)-2-phthalide-3(3H)-pyrazolones as balanced multifunctional agents against Alzheimer's disease” (Eur J Med Chem, 2023).

Series [1] addresses Amyloid-beta precursor protein (Homo sapiens) (UniProt P05067). As to the kind of experiment: Disaggregation of Cu2+-induced amyloid beta (1 to 42) (unknown origin) preformed fibrils at 25 uM by ThT fluorescence assay.
The target of series [2] is T1, Amine oxidase [flavin-containing] B (Homo sapiens, UniProt P27338).
T1 sequence (P27338 whole entry): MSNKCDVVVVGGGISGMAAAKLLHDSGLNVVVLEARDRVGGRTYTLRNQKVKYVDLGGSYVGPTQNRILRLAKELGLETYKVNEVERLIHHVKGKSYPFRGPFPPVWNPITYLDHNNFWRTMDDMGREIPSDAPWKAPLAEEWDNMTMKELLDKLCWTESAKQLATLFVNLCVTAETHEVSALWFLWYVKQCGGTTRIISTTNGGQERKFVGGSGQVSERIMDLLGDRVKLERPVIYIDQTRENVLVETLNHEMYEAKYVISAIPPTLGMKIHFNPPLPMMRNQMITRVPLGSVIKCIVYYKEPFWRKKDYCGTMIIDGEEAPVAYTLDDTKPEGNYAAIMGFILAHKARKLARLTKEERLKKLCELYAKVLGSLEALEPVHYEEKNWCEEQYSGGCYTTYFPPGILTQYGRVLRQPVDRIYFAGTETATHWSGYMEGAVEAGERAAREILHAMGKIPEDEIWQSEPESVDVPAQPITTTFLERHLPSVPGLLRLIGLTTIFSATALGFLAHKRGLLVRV
As to the kind of experiment: Inhibition of human recombinant MAO-B.

Series [3] is described as follows: Antioxidant activity assessed as trolox equivalent of ORAC radical scavenging activity by ORAC-FL assay relative to trolox. It counts as functional.
Series [4] deals with T2, Amine oxidase [flavin-containing] A (Homo sapiens, UniProt P21397).
T2 sequence (P21397 whole entry): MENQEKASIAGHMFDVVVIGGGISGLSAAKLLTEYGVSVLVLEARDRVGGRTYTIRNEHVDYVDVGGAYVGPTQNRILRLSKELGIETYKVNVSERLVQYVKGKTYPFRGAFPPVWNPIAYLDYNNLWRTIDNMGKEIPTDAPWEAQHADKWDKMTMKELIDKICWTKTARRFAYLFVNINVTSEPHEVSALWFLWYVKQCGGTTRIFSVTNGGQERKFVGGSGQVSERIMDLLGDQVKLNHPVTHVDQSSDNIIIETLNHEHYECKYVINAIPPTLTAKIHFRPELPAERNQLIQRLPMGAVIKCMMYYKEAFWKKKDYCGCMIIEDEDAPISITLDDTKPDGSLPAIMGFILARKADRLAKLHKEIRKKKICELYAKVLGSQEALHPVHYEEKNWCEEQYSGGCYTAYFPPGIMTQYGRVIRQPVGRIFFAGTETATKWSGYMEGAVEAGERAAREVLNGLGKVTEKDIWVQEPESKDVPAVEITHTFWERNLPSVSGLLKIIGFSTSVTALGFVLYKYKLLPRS
As to the kind of experiment: Inhibition of human recombinant MAO-A.

Series [5] in a line: Selectivity index, ratio of IC50 for human recombinant MAO-A to IC50 for human recombinant MAO-B.
The next series deals with T3, MAO-A (Homo sapiens, UniProt P21397).
T3 sequence (P21397 whole entry): T2 sequence (P21397 whole entry)
As to the kind of experiment: Inhibition of human recombinant MAO-A at 10 uM.

The target in series [6] is Amyloid-beta precursor protein (Homo sapiens) (UniProt P05067). As to the kind of experiment: Inhibition of Cu2+-induced amyloid beta (1 to 42) (unknown origin) aggregation at 25 uM by ThT fluorescence assay.
Chain of Amyloid-beta precursor protein (Homo sapiens) (P05067 whole entry): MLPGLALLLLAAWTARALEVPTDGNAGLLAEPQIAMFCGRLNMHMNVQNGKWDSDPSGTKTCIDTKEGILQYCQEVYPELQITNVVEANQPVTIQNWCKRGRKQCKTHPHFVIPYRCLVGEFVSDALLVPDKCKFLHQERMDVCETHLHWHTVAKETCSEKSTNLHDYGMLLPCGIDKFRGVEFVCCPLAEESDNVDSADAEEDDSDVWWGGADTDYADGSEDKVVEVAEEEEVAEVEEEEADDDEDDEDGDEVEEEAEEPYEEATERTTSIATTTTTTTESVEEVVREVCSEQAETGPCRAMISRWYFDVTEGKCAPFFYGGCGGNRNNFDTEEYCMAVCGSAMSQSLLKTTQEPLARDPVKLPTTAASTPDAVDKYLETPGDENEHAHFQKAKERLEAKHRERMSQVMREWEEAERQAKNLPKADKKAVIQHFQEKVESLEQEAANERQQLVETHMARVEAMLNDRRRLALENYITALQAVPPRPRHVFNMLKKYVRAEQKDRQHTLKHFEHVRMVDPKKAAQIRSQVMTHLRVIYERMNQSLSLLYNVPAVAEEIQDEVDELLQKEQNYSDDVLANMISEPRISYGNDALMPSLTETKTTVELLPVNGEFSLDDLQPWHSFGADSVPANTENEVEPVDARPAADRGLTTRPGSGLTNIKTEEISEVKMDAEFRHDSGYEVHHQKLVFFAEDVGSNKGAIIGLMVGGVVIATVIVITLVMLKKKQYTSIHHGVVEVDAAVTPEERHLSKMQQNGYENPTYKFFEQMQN
Series [7] has the same target. As to the kind of experiment: Disaggregation of self-induced amyloid beta (1 to 42) (unknown origin) preformed fibrils at 25 uM by ThT fluorescence assay.
The target is the same in series [8]. As to the kind of experiment: Inhibition of self-induced amyloid beta (1 to 42) (unknown origin) aggregation at 25 uM by ThT fluorescence assay.

As for `CCCCC1OC(=O)c2cc(N3N=C(c4cc(Cl)cc(Br)c4O)CC3=O)ccc21` (centres undefined), the Activity worked out at 86.8% in [1] and 87.1% in [7]. The results for the IC50 in series [2] and in series [4] were 6.5 µM and > 10 µM, respectively. The Ratio in series [3] came out at 1.1 equiv. The Ratio IC50 in series [5] was > 1.5. Besides, the inhibition at 10 µM at MAO-A was found to be 8.09%. The inhibition was 85.1% in [6] and 65.2% in series [8].

Regarding `CCCCC1OC(=O)c2cc(N3N=C(c4cc(F)ccc4O)CC3=O)ccc21` (centres undefined), the Activity in series [1] came out at 59.5%; in series [7], 52.7%. Further, the 50% inhibitory concentration (IC50) was 3.45 µM in series [2] and > 10 µM in series [4]. Further, the Ratio in [3] came out at 1.21 equiv. Also, in series [5], the Ratio IC50 is > 2.9. Besides, the inhibition at 10 µM on MAO-A came to 13.3%. In addition, the results for the inhibition in series [6] and in series [8] were 60.3% and 66.6%, respectively.

Regarding `CCCCC1OC(=O)c2cc(N3N=C(c4cc(Cl)cc(Cl)c4O)CC3=O)ccc21` (centres undefined), the Activity in series [1] was 77.7%; in series [7], 78.3%. Besides, the IC50 was 5.53 µM in series [2] and > 10 µM in series [4]. For the same molecule, the Ratio in series [3] was determined as 0.97 equiv. Further, the Ratio IC50 in series [5] was > 1.8. Further, the inhibition at 10 µM at MAO-A was 1.11%. Moreover, the inhibition in series [6] was found to be 70.3%; in series [8] it was 55.1%.

In the case of `CCCCC1OC(=O)c2cc(N3N=C(c4ccc(Br)cc4O)CC3=O)ccc21` (centres undefined), the results for the Activity in [1] and in [7] were 66% and 54.1%, respectively. Moreover, the IC50 in series [2] was 12.3 µM; in [4], > 10 µM. Further, in series [3], the Ratio turned out to be 1.22 equiv. Moreover, the Ratio IC50 in series [5] is > 0.8. Besides, at MAO-A, the inhibition at 10 µM was 14.8%. For the same molecule, the inhibition in [6] turned out to be 69.4%; in series [8] it was 65.6%.

Take `CCCCCCC1OC(=O)c2cc(N3N=C(c4cc(Cl)ccc4O)CC3=O)ccc21` (centres undefined): the Activity in series [1] was found to be 73.8%; in series [7], 76.3%. In addition, the values for the IC50 in series [2] and in series [4] were 8.32 µM and > 10 µM, respectively. In [3], the Ratio was determined as 1.18 equiv. For the same molecule, in [5], the Ratio IC50 was > 1.2. Also, the inhibition at 10 µM on MAO-A is 27.8%. Further, the inhibition in [6] came out at 52.7%; in series [8] it was 54.6%.

As for `CCCCC1OC(=O)c2cc(N3N=C(c4cc(OC)ccc4O)CC3=O)ccc21` (centres undefined), the Activity was 69.1% in [1] and 59.9% in [7]. For the same molecule, the IC50 in [2] is 3.88 µM; in series [4], > 10 µM. Further, the Ratio in series [3] was found to be 2.28 equiv. Further, the Ratio IC50 in [5] is > 2.6. The inhibition at 10 µM on MAO-A was determined as 2.97%. Besides, the inhibition amounted to 71% in series [6] and 78% in series [8].
